Assay results taken from patent US20250108119A1, “NOVEL STEROID PAYLOADS, STEROID LINKERS, ADCs CONTAINING AND USE THEREOF” (IMMUNEXT, INC., priority 2021, published 2025).
“Also recorded” adds a separate entry of the source.

What was measured:
FKBP5 [1] = assay: FKBP5 transcription in isolated human monocytes, B cells and Tregs; type: cell-based
Source text: Monocytes or B cells were isolated from healthy donor blood samples and treated with free steroid, anti-VISTA conjugated steroid, or conjugated isotype control. RNA was isolated, and change in FKBP5 transcript level assessed by qPCR.
The various immune populations were isolated using different cell isolation kits and following manufacturer instructions: • EasySep Human monocyte enrichment kit without CD16 depletion (StemCell cat #19058) • Pan B cell isolation kit, human (Miltenyi Biotec, 130-101-638). • EasySep™ Human CD4+CD127 low CD49d-regulatory T cell enrichment Kit (StemCell cat #19232)
Monocytes, B cells or Tregs were plated (from single donors) at 2×10^6 cells per well in a 12-well plate in RPMI, 10% human AB serum, 10 mM Hepes, 1× Penicillin/Streptomycin/Glutamine.
For single dose experiments, cells were treated with 20 nM free J payload or INX-SM-3 payload or the molar payload equivalent of huIgG1si J, INX201J or INX231P (the linked form of INX-SM-3). […]
After one wash with PBS, RNA was isolated from cell pellets using either the RNeasy Plus Mini kit (Qiagen, PN: 74136) or NucleoSpin RNA Plus (Macherey-Nagel #740984.250). […] RNA concentration was assessed by UV spectroscopy using a Nanodrop 2000. […]
Quantitative Real-Time PCR was done using Taqman master mix 2× kit (#4369016) and run on a QuantStudio3 from Applied Biosystem. […]

[2] = Linker payload and released payload in serum and peripheral blood leukocytes (MS); type: in vivo, cynomolgus monkey; conditions: INX234P 15 mg/Kg i.v., analyte as labelled
Procedure: MS quantification was performed by Quintara Discovery on cell pellets and on serum.
Briefly, cell pellets were suspended with 100 μL of 20% methanol.
Normalization of the data to cell volume (ng/ml) was done by first calculating the cell numbers based on the PBL or WBC hematological count and the fixed volume for each sample processed for MS. We then converted to volume by using the arbitrary mean corpuscular volume (MCV) of […] per cell that is the most frequently adopted (3).
Each plasma sample was extracted with acetonitrile: methanol containing internal standard (Verapamil).

human PBMC = assay: Cytokine production (IL-1β, IL-6) at 24 hr by human PBMC incubated with 1 ng/mL LPS; type: cell-based; conditions: free steroid payloads, serial dilutions, 1 ng/mL LPS, 24 hr
Outline: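 Human PBMC were stimulated with 1 ng/mL LPS together with serial dilutions of steroid payloads or glucocorticoid conjugates, spanning up to 8,000 nM down to 0.032 nM depending on the series. IL-1β and IL-6 were measured at 24 hr from technical duplicates, with 1-2 donors. Values above the ULOQ were extrapolated.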

[3] = tested on: LPS stimulated human PBMCs; assay: LPS stimulated human PBMC, IL-1β and IL-6 ELISA; type: cell-based
Outline: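 Human PBMC (1-2 healthy donors), 150,000 cells/well, treated with test agents at 1,000 nM down to 1 nM or 0.2 nM, in duplicate. LPS at 1 ng/ml added immediately after free payload or 4 h after conjugates; IL-1β and IL-6 in supernatants measured by ELISA.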

[4] = tested on: peritoneal resident macrophages (PRM); assay: In vivo treatment/ex vivo PRM activation, TNFα and IL-6 in supernatant; set-up: species or system hVISTA mice
Procedure: Based thereon we developed a model to allow us to evaluate long-term anti-inflammatory impact of ADC on specific target populations, such as PRMs. […] In the absence of GC treatment, after 2h PRMs become highly activated as shown by increases in cytokine production. […] The objective of these studies was to evaluate the efficacy and pharmacodynamic range of INX human VISTA antibodies conjugated to a glucocorticoid payload as compared to free Dex.
After euthanasia, mice were injected in the peritoneal cavity with 7 ml of PBS/0.5% BSA/2 mM EDTA. After a brief massage of the peritoneum, a small incision was performed and the peritoneal lavage collected. PRM were isolated using negative selection (Miltenyi kit, ref 130-110-434). Spleen were dissected and dissociated mechanically; monocytes were isolated using […] (Stem Cell, EasySep™ Mouse CD11b Positive Selection Kit II).
PRMs were resuspended in RPMI 1640 with 10% FBS, 10 mM Hepes, Penicillin/Streptomycin and glutamine and 100,000 cells were plated per well in a 96-well tissue culture plate. Supernatants were collected at 2 and 24h post plating and stored at −80° C. […]
• BioLegend (cat #430904) ELISA MAX Deluxe Set Mouse TNF-α • BioLegend (cat #431304) ELISA MAX Deluxe Set Mouse IL-6
ELISAs were conducted following the manufacturer's included protocol.

FKBP5 [5] = assay: FKBP5 transcription in peritoneal resident macrophages (PRM) and spleen cells after in vivo treatment; set-up: species or system hVISTA mice; conditions: linker payloads as anti-VISTA conjugates
[6] = linker/payloads as anti-VISTA conjugates

C[C@]12C=CC(=O)C=C1CC[C@@H]1[C@@H]2[C@@H](O)C[C@@]2(C)[C@H]1C[C@H]1O[C@@H](c3ccc(Cc4cccc(N)c4)cc3)O[C@]12C(=O)CO [free J payload, reference compound]
FKBP5 transcription in monocytes and B cells (FKBP5 [1]; Experiment 1: 20 nM payload, 1 day): robust increase in FKBP5 transcription was observed with free J payload in both monocytes and B cells

C[C@]12C=CC(=O)C=C1CC[C@@H]1[C@@H]2[C@@H](O)C[C@@]2(C)[C@H]1C[C@H]1O[C@@H](c3ccc(CC45CC(NC(=O)[C@H](CCC(=O)O)NC(=O)CNC(=O)CSC[C@H](N)C(=O)O)(C4)C5)cc3)O[C@]12C(=O)CO [P-cys, (S)-4-(2-(2-(((R)-2-amino-2-carboxyethyl)thio)acetamido)acetamido)-5-((3-(4-((6aR,6bS,7S,8aS,8bS,10R,11aR,12aS,12bS)-7-hydroxy-8b-(2-hydroxyacetyl)-6a,8a-dimethyl-4-oxo-2,4,6a,6b,7,8,8a,8b,11a,12,12a,12b-dodecahydro-1H-naphtho[2′,1′:4,5]indeno[1,2-d][1,3]dioxol-10-yl)benzyl)bicyclo[1.1.1]pentan-1-yl)amino)-5-oxopentanoic acid]
serum level by day 8 (192 hr) post injection [2]: below detection
time of peak concentration in serum [2]: ~12 h
Kp ([2]; cynomolgus monkey, in vivo, read-out: intracellular (PBL) levels as compared to serum): 100

C[C@]12C=CC(=O)C=C1CC[C@@H]1[C@@H]2[C@@H](O)C[C@@]2(C)[C@H]1C[C@H]1O[C@@H](c3ccc(CC45CC(N)(C4)C5)cc3)O[C@]12C(=O)CO [INX-SM-3, (6aR,6bS,7S,8aS,8bS,10R,11aR,12aS,12bS)-10-(4-((3-aminobicyclo[1.1.1]pentan-1-yl)methyl)phenyl)-7-hydroxy-8b-(2-hydroxyacetyl)-6a,8a-dimethyl-1,2,6a,6b,7,8,8a,8b,11a,12,12a,12b-dodecahydro-4H-naphtho[2′,1′:4,5]indeno[1,2-d][1,3]dioxol-4-one]
inhibition of IL-1β production (human PBMC): inhibit; also recorded: robust inhibition
inhibition of IL-6 production (human PBMC): inhibit
FKBP5 transcription in Tregs (FKBP5 [1]; Experiment 3: 20 nM payload, 2 donors): lead to increased FKBP5 transcription
inhibition of IL-1β and IL-6 production ([3]; Experiment 1: free payload 1000-1 nM, 1 ng/ml LPS, 24 hr, n=1 donor): inhibit both IL-1β and IL-6 production; also recorded: the most potent compound among these three
inhibition of IL-1β production ([3]; Experiment 2: free payload 1000-1 nM, 24 hr, n=1 donor): show inhibition in IL-1β production; also recorded: again the most potent compound among these compounds tested
inhibition of IL-1β production ([3]; Experiment 8: free payload 1000-0.5 nM): robust inhibition in IL-1B production

C[C@]12C=CC(=O)C=C1CC[C@@H]1[C@@H]2[C@@H](O)C[C@@]2(C)[C@H]1C[C@H]1O[C@@H](c3ccc(CC45CC(NC(=O)[C@H](CCCCN)NC(=O)CNC(=O)CBr)(C4)C5)cc3)O[C@]12C(=O)CO [INX W, (S)-6-amino-2-(2-(2-bromoacetamido)acetamido)-N-(3-(4-((6aR,6bS,7S,8aS,8bS,10R,11aR,12aS,12bS)-7-hydroxy-8b-(2-hydroxyacetyl)-6a,8a-dimethyl-4-oxo-2,4,6a,6b,7,8,8a,8b,11a,12,12a,12b-dodecahydro-1H-naphtho[2′,1′:4,5]indeno[1,2-d][1,3]dioxol-10-yl)benzyl)bicycle[1.1.1]pentan-1-yl) hexanamide]
preventing ex vivo induction of TNFα and IL-6 in PRM ([4]; Experiment 9: linker payloads as conjugates, 7 days post 0.2 mg/Kg of GC payload, supernatant 24h): remarkable long-term potency in controlling cytokine responses
potency in PRM cytokine model when dosed 7 days early (conclusions) [4, 6]: remarkably more potent than payloads INX P and INX R when dosed 7 days early
FKBP5 induction when dosed 14 days early (conclusions) (FKBP5 [5]): still display significant potency when dosed 14 days early in regard to FKBP5 induction

C[C@]12C=CC(=O)C=C1CC[C@@H]1[C@@H]2[C@@H](O)C[C@@]2(C)[C@H]1C[C@H]1O[C@@H](c3ccc(CC4CC5(C4)CC(NC(=O)[C@H](CC(N)=O)NC(=O)CNC(=O)CBr)C5)cc3)O[C@]12C(=O)CO (stereo partly drawn) [INX A11, (S)-2-(2-(2-bromoacetamido)acetamido)-N1-(6-(4-((6aR,6bS,7S,8aS,8bS,10R,11aR,12aS,12bS)-7-hydroxy-8b-(2-hydroxyacetyl)-6a,8a-dimethyl-4-oxo-2,4,6a,6b,7,8,8a,8b,11a,12,12a,12b-dodecahydro-1H-naphtho[2′,1′:4,5]indeno[1,2-d][1,3]dioxol-10-yl)benzyl)spiro[3.3]heptan-2-yl) succinamide]
controlling cytokine response in PRM when dosed 14 days early (conclusions) [4, 6]: significant potency in controlling cytokine response in PRM when dosed 14 days early
FKBP5 induction when dosed 14 days early (conclusions) (FKBP5 [5]): still display significant potency when dosed 14 days early in regard to FKBP5 induction
potency of conjugated linker payloads over INX J (conclusions) [3]: enhanced potency

C[C@]12C=CC(=O)C=C1CC[C@@H]1[C@@H]2[C@@H](O)C[C@@]2(C)[C@H]1C[C@H]1O[C@@H](c3ccc(Cc4cccc(NC(=O)[C@H](CCC(=O)O)NC(=O)CNC(=O)CBr)c4)cc3)O[C@]12C(=O)COP(=O)(O)O [INX L]
controlling cytokine response in PRM when dosed 14 days early (conclusions) [4, 6]: significant potency in controlling cytokine response in PRM when dosed 14 days early
FKBP5 induction in splenic cells (conclusions) (FKBP5 [5]; day 1, 7, 14): only demonstrate significant induction at day 1, and 7

C[C@]12C=CC(=O)C=C1CC[C@@H]1[C@@H]2[C@@H](O)C[C@@]2(C)[C@H]1C[C@H]1O[C@@H](c3ccc(OC4CC5(CC(NC(=O)[C@H](CCC(=O)O)NC(=O)CNC(=O)CBr)C5)C4)cc3F)O[C@]12C(=O)CO (stereo partly drawn) [INX A5, (S)-4-(2-(2-bromoacetamido)acetamido)-5-((6-(3-fluoro-4-((6aR,6bS,7S,8aS,8bS,10R,11aR,12aS,12bS)-7-hydroxy-8b-(2-hydroxyacetyl)-6a,8a-dimethyl-4-oxo-2,4,6a,6b,7,8,8a,8b,11a,12,12a,12b-dodecahydro-1H-naphtho[2′,1′:4,5]indeno[1,2-d][1,3]dioxol-10-yl)phenoxy)spiro[3.3]heptan-2-yl)amino)-5-oxopentanoic acid]
controlling cytokine response in PRM when dosed 14 days early (conclusions) [4, 6]: significant potency in controlling cytokine response in PRM when dosed 14 days early
FKBP5 induction when dosed 14 days early (conclusions) (FKBP5 [5]): still display significant potency when dosed 14 days early in regard to FKBP5 induction
potency of conjugated linker payloads over INX J (conclusions) [3]: enhanced potency
